“And” between values parts separate entries of the source, which are not always exact repeats. Equal entries are not always repeated. Inconclusive results and toxic doses are left out.
Test system: L1210 leukemia ip in BDF1 mice, survival T/C
Assay: NCI In Vivo Anticancer Drug Screen. Data for tumor model L1210 Leukemia (intraperitoneal) in B6D2F1 (BDF1) mice
Details: endpoint: mean survival time, higher = longer survival
Summary of the method: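 Each compound was tested against a transplantable tumor grown in mice. The endpoint was survival, with treated animals benchmarked against vehicle controls as a simple ratio.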

[1] = dose: 100.0 mg/kg/injection, schedule: Q04DX002 (ip), vehicle: Klucel (hydroxypropylcellulose) (HPC)
[2] = dose: 200.0 mg/kg/injection, schedule: Q04DX002 (ip), vehicle: Klucel (hydroxypropylcellulose) (HPC)
[3] = dose: 400.0 mg/kg/injection, schedule: Q04DX002 (ip), vehicle: Klucel (hydroxypropylcellulose) (HPC)
[4] = dose: 100.0 mg/kg/injection, schedule: Q01DX001 (ip), vehicle: saline
[5] = dose: 100.0 mg/kg/injection, schedule: Q04DX002 (ip), vehicle: saline with Tween-80
[6] = dose: 200.0 mg/kg/injection, schedule: Q04DX002 (ip), vehicle: saline with Tween-80
[7] = dose: 400.0 mg/kg/injection, schedule: Q04DX002 (ip), vehicle: saline with Tween-80
[8] = dose: 100.0 mg/kg/injection, schedule: Q04DX003 (ip), vehicle: Klucel (hydroxypropylcellulose) (HPC)
[9] = dose: 200.0 mg/kg/injection, schedule: Q04DX003 (ip), vehicle: Klucel (hydroxypropylcellulose) (HPC)
[10] = dose: 400.0 mg/kg/injection, schedule: Q04DX003 (ip), vehicle: Klucel (hydroxypropylcellulose) (HPC)

CNC(=O)Oc1ccc([N+](C)(C)C)cc1
T/C (dose: 9.5 mg/kg/injection, schedule: Q01DX001 (ip), vehicle: saline): 109 % of control | T/C (dose: 19.0 mg/kg/injection, schedule: Q01DX001 (ip), vehicle: saline): 100 % of control

O=c1oc2ccccc2c(Cl)c1Cl
T/C (dose: 10.0 mg/kg/injection, schedule: Q01DX001 (ip), vehicle: saline): 109 % of control

CNC(=O)Nc1ccc(C(=O)O)cc1
T/C [1]: 102 % of control | T/C [2]: 95 % of control | T/C [3]: 95 % of control

COc1ccc(F)cc1CC(=O)O
T/C [1]: 102 % of control and 105 % of control | T/C [2]: 98 % of control and 105 % of control | T/C [3]: 91 % of control and 96 % of control

Nc1ncnc2c1c(C1=NCCCN1)cn2C1OC(CO)C(O)C1O (stereo unspecified)
T/C (dose: 12.5 mg/kg/injection, schedule: Q01DX005 (ip), vehicle: saline): 117 % of control | T/C (dose: 50.0 mg/kg/injection, schedule: Q01DX005 (ip), vehicle: saline): 151 % of control

ClCc1cccc2c(CCl)cccc12
T/C (dose: 50.0 mg/kg/injection, schedule: Q01DX001 (ip), vehicle: saline): 101 % of control | T/C [4]: 101 % of control

CNC(=O)OC(C)(C)C#N
T/C [5]: 101 % of control | T/C [6]: 101 % of control | T/C [7]: 106 % of control

O=Cc1nc2ccccc2c2ccccc12
T/C (dose: 100.0 mg/kg/injection, schedule: Q04DX003 (ip), vehicle: saline with Tween-80): 89 % of control | T/C (dose: 200.0 mg/kg/injection, schedule: Q04DX003 (ip), vehicle: saline with Tween-80): 94 % of control | T/C (dose: 400.0 mg/kg/injection, schedule: Q04DX003 (ip), vehicle: saline with Tween-80): 103 % of control

O=C(O)c1cc2ccc3ccccc3c2s1
T/C [4]: 87 % of control | T/C (dose: 200.0 mg/kg/injection, schedule: Q01DX001 (ip), vehicle: saline): 88 % of control

O=C(Nc1ccccc1F)Nc1cc(Cl)ccc1Cl
T/C (dose: 100.0 mg/kg/injection, schedule: Q01DX009 (ip), vehicle: saline sonified): 91 % of control | T/C [8]: 89 % of control | T/C (dose: 200.0 mg/kg/injection, schedule: Q01DX009 (ip), vehicle: saline sonified): 93 % of control | T/C [9]: 94 % of control | T/C (dose: 400.0 mg/kg/injection, schedule: Q01DX009 (ip), vehicle: saline sonified): 93 % of control | T/C [10]: 86 % of control

CCCCCCCC(=O)CCC
T/C (dose: 100.0 mg/kg/injection, schedule: Q01DX009 (ip), vehicle: Klucel (hydroxypropylcellulose) (HPC)): 108 % of control | T/C [8]: 98 % of control | T/C (dose: 200.0 mg/kg/injection, schedule: Q01DX009 (ip), vehicle: Klucel (hydroxypropylcellulose) (HPC)): 104 % of control | T/C [9]: 89 % of control | T/C (dose: 400.0 mg/kg/injection, schedule: Q01DX009 (ip), vehicle: Klucel (hydroxypropylcellulose) (HPC)): 102 % of control | T/C [10]: 89 % of control

O=C(/C=C/c1cccnc1)/C=C/c1cccnc1
T/C (dose: 80.0 mg/kg/injection, schedule: Q01DX009 (ip), vehicle: Klucel (hydroxypropylcellulose) (HPC)): 108 % of control

Nc1ccc2c(c1)OCO2
T/C (dose: 90.0 mg/kg/injection, schedule: Q04DX003 (sc), vehicle: olive oil, sesame oil, peanut oil): 106 % of control | T/C (dose: 100.0 mg/kg/injection, schedule: Q01DX009 (sc), vehicle: olive oil, sesame oil, peanut oil): 107 % of control | T/C (dose: 100.0 mg/kg/injection, schedule: Q04DX003 (sc), vehicle: olive oil, sesame oil, peanut oil): 101 % of control | T/C (dose: 133.0 mg/kg/injection, schedule: Q04DX003 (sc), vehicle: olive oil, sesame oil, peanut oil): 119 % of control | T/C (dose: 200.0 mg/kg/injection, schedule: Q01DX009 (sc), vehicle: olive oil, sesame oil, peanut oil): 112 % of control | T/C (dose: 400.0 mg/kg/injection, schedule: Q04DX003 (sc), vehicle: olive oil, sesame oil, peanut oil): 108 % of control

COC(=O)c1nnc(C(=O)OC)nn1
T/C (dose: 100.0 mg/kg/injection, schedule: Q04DX002 (ip), vehicle: saline): 96 % of control | T/C (dose: 200.0 mg/kg/injection, schedule: Q04DX002 (ip), vehicle: saline): 115 % of control | T/C (dose: 400.0 mg/kg/injection, schedule: Q04DX002 (ip), vehicle: saline): 96 % of control

CC1CN=C(c2ccc3ccccc3c2O)S1 (stereo unspecified)
T/C (dose: 100.0 mg/kg/injection, schedule: Q01DX005 (ip), vehicle: saline with Tween-80): 90 % of control | T/C (dose: 100.0 mg/kg/injection, schedule: Q01DX009 (ip), vehicle: saline with Tween-80): 113 % of control | T/C [5]: 103 % of control | T/C (dose: 200.0 mg/kg/injection, schedule: Q01DX005 (ip), vehicle: saline with Tween-80): 90 % of control | T/C (dose: 200.0 mg/kg/injection, schedule: Q01DX009 (ip), vehicle: saline with Tween-80): 90 % of control | T/C [6]: 96 % of control | T/C (dose: 400.0 mg/kg/injection, schedule: Q01DX009 (ip), vehicle: saline with Tween-80): 94 % of control | T/C [7]: 103 % of control

Source: PubChem BioAssay AID248 (DTP/NCI, 2004)
